Source: patent US9945863B2, “Coiled coil helix cristae morphology 1 (CHCM1) tumor marker and cancer therapeutic target” (The Research Foundation of State University of New York, priority 2012, dated 2018)

Experiments:
[1] = test system: CHCM1/CHCHD6 mRNA; test: Lentiviral shRNA knockdown of endogenous CHCM1/CHCHD6 (Northern and Western blot); format: cell-based; conditions: RKO human colon and MCF-7 breast cancer cells; M.O.I. 1.0 (FIG. 5A)
Procedure: (§1) Northern blot analyses were done according to standard procedure (23, 24). Briefly, total RNA was extracted by Trizol reagent (Invitrogen, Carlsbad, Calif.) and ˜15 μg of total RNA were size-separated on 1.2% agarose gel and transferred to nylon membrane (Whatman, GE Health care, Piscataway, N.J.). Human CHCM1/CHCHD6 cDNA probe was labeled with ^32P and hybridization was performed in QuikHyb solution (Stratagene, La Jolla, Calif.) at 65° C.
(§2) Western blotting and immunoprecipitations were done by standard procedures as previously described (25, 26). S-tag pull down experiments were performed using human cancer cells as well as bacterial lysates. Cell pellets were prepared and lysed in lysis buffer (50 mM Tris-HCl, pH 7.4, 120 mM NaCl, 0.1% NP-40, 10 mM NaF, 5 mM EDTA, 2 mM Na3VO4, 2 mM MgCl2, 10 mM KCl, 25 mM glycerophosphate, protease inhibitor cocktail, okadic acid and 1 mM PMSF) and S-tag pull down was performed by using S-protein agarose beads (Novagen, EMD Chemicals Group, Darmstadt, Germany) according to manufacturer's protocol. For S-tag pull down using bacterial lysates, wild type and deletion variants of S-tagged CHCM1/CHCHD6 were expressed in E. coli BL21 (DE3) and induced by 1 mM IPTG (isopropyl-1-thio-β-D-galactopyranoside) at 30° C. for 6 hr. Bacteria were lysed in a buffer containing 28 mM Tris, 135 mM NaCl, 1 mM dithiothreitol (DTT), 1% Triton-X 100 (w/v), protease inhibitor cocktail and 400 μg/ml […] for 30 min at room temperature, followed by 26,000×g centrifugation for 30 min (Sorvall RC5C Plus) and S-tag pull down was done according to manufacturer's protocol. GST-tagged Mitofilin was expressed in bacteria and gel-purified as previously described (27).
Endogenous CHCM1/CHCHD6 and Mitofilin were knocked-down by lentiviral shRNA-mediated approach (28). The pLKO.1 lentiviral vectors containing the scrambled or CHCM1/CHCHD6-specific shRNAs or Mitofilin-specific shRNAs were generated by The RNA interference Consortium and purchased from Open Biosystems (Huntsville, Ala.). Lentiviruses were produced and titered according to the supplier's protocols. In all experiments, the multiplicity of infection (M.O.I.) was 1.0. Five shRNAs to target five different regions of CHCM1/CHCHD6 were used. Artificial DNA sequences coding for shRNAs are as follows. The first part of the sequence is in sense orientation then loop (underlined) followed by antisense sequence: […]

[2] = test system: CHCM1/CHCHD6 protein levels; test: Western blot of CHCM1/CHCHD6 protein levels after drug treatment; format: cell-based, human
Procedure: as §2

[3] = test system: CHCM1/CHCHD6 mRNA; test: Northern blot of CHCM1/CHCHD6 mRNA after genotoxic drug treatment; format: cell-based, human
Procedure: as §1

[4] = test system: RKO cells stably expressing exogenous CHCM1/CHCHD6; test: MTT assay, chemosensitivity of cells stably overexpressing CHCM1/CHCHD6; format: cell-based, human; conditions: etoposide 30 μM for 48 hr; clones C3 and C4 vs vector (FIG. 6B)
Text: For stable transfections, expression vector pcDNA3.1 carrying HA/S-tagged CHCM1/CHCHD6 was used. The same vector without CHCM1/CHCHD6 insert was used for control transfection. RKO human colon cancer cells were transfected with these vectors using Lipofectamine 2000 (Invitrogen, Carlsbad, Calif.) and G418-resisitant colonies selected after approximately 2 weeks. Several independent colonies were picked up and expanded into mass culture and screened for the expression of exogenous CHCM1/CHCHD6. Several vector-only transfected colonies were also isolated, pooled and expanded into mass culture. CHCM1/CHCHD6 expressing clones B4, C3 and C4 were selected for further studies.
(§3) MTT powder (MTT, Methylthiazolyldiphenyl-tetrazolium bromide, available from Sigma-Aldrich, St. Louis, Mo., Cat. No. M2128) was dissolved in DMEM without fetal bovine serum and phenol red to a final concentration of 1 mg/ml and then added to cells and incubated for ˜1-4 hrs depending on cell confluency. Medium was then removed and equal volume of isopropanol with 0.04N HCl was added to dissolve the precipitate. Finally, absorbance was read at 570 nm wavelength subtracting background reading at 650 nm wavelength with a Bio-Rad Smart-Spec 3100 instrument.

[5] = test system: MDA231 and SK-Mel-103 cells; test: MTT assay, chemosensitivity of CHCM1/CHCHD6 knockdown cells; format: cell-based, human; conditions: Adria 3 μM for MDA231, 1 μM for SK-Mel-103, 24 hr; knockdown vs scramble (FIG. 6A)
Text: (§4) Endogenous CHCM1/CHCHD6 and Mitofilin were knocked-down by lentiviral shRNA-mediated approach (28). The pLKO.1 lentiviral vectors containing the scrambled or CHCM1/CHCHD6-specific shRNAs or Mitofilin-specific shRNAs were generated by The RNA interference Consortium and purchased from Open Biosystems (Huntsville, Ala.). Lentiviruses were produced and titered according to the supplier's protocols. In all experiments, the multiplicity of infection (M.O.I.) was 1.0. Five shRNAs to target five different regions of CHCM1/CHCHD6 were used. Artificial DNA sequences coding for shRNAs are as follows. The first part of the sequence is in sense orientation then loop (underlined) followed by antisense sequence:
as §3

[6] = test system: RKO cells; test: Oxygen consumption rate measurement; format: cell-based, human; conditions: RKO knockdown vs scramble cells; p<0.05 (FIG. 11B)
Procedure: Intact cell oxygen consumption rate was measured by an Oxygraph system with DW1 Oxygen Electrode (Hansatech Instruments Ltd., Norfolk, U. K.) as described previously (30). Briefly, RKO cells with CHCM1/CHCHD6 knockdown or scramble knockdown were harvested by trypsinization and centrifugation at 2500 rpm. Approximately 1.5×10^6 cells were re-suspended in 300 μl growth medium for each sample and injected into the polarographic chamber for the intact cell-coupled oxygen consumption rate.

[7] = test system: melanoma cells; test: MTT assay, cell growth in CHCM1 knockdown melanoma cells; format: cell-based, human; conditions: knockdown vs scramble; melanoma cells (FIG. 24)
Text: as §4, §3

[8] = test system: RKO cells; test: Transmission electron microscopy of mitochondrial cristae, RKO; format: cell-based, human; conditions: CHCM1/CHCHD6 knockdown
Text: as §4
Scramble and CHCM1/CHCHD6 knockdown cells were harvested and fixed by Ito and Karnovsky's fixative (2.5% glutaraldehyde, 2% paraformaldehyde in 0.1 M cacodylate buffer, pH 7.4) at 4° C. overnight (29). The next day cells were rinsed with 0.1 M cacodylate buffer for 5 times, 5 min each. After fixing with 1% osmium tetroxide in 0.1 M cacodylate buffer for 1 hr on ice, the samples were rinsed with double-distilled H2O for 3 times, 8 min each and later fixed with 1% Tannic acid for 1 hr. After rinsing with double-distilled H2O for additional 3 times 8 min each, samples were dehydrated and embedded into Poly/Bed® 812 according to the protocol of Poly/Bed® 812 BDMA Mini-kit (Polyscience, Inc., Warrington, Pa.). Poly/Bed®-embedded cells were cut into 80-90 nm ultrathin serial sections by a diamond knife-DIATOME 45 degree (Diatome U S, Hatfield, Pa.). Sections were supported on nickel grids/200 mesh (Electron Microscopy Sciences, Hatfield, Pa.) and post-stained in 4% uranyl acetate and 4% lead citrate. Finally sections were observed under Tecnai™ Transmission Electron Microscope (BioTwin lens) with Advantage Plus CCD Camera System at an 80.0-kV acceleration voltage.

[9] = test system: MCF7 cells; test: Transmission electron microscopy of mitochondrial cristae, MCF7; format: cell-based, human; conditions: CHCM1/CHCHD6 knockdown
Text: as §4
Scramble and CHCM1/CHCHD6 knockdown cells were harvested and fixed by Ito and Karnovsky's fixative (2.5% glutaraldehyde, 2% paraformaldehyde in 0.1 M cacodylate buffer, pH 7.4) at 4° C. overnight (29). The next day cells were rinsed with 0.1 M cacodylate buffer for 5 times, 5 min each. After fixing with 1% osmium tetroxide in 0.1 M cacodylate buffer for 1 hr on ice, the samples were rinsed with double-distilled H2O for 3 times, 8 min each and later fixed with 1% Tannic acid for 1 hr. […]

[10] = test system: RKO, MCF7 and MDA231 cell lines; test: MTT assay, cell growth in CHCM1/CHCHD6 knockdown cells; format: cell-based, human; conditions: knockdown vs scramble, MCF7, MDA231 (FIG. 5B)
Text: as §4, §3

[11] = test system: RKO cells; test: Mitochondrial ATP synthesis assay (luciferase-based); format: cell-based, human; conditions: RKO knockdown vs scramble cells; p<0.05 (FIG. 11A)
Procedure: Mitochondrial ATP synthesis assay was performed as reported previously (30). Briefly, CHCM1/CHCHD6 knockdown or scramble knockdown RKO cells were harvested, washed with glucose-free, serum free DMEM. Each sample with approximately 1.5×10^6 cells were re-suspended and incubated in 160 μl of buffer A (150 mM KCl, 25 mM Tris-HCl, 2 mM EDTA, 0.1% BSA, 10 mM potassium phosphate, pH 7.4, 0.1 mM MgCl2) with digitonin (40 μg/ml final concentration) for 1 min at room temperature. After a wash with buffer A, cells were centrifuged at 800×g at room temperature and pellets were re-suspended in 160 μl buffer A containing P^1, P^5-di (adenosine) pentaphosphate (0.15 mM). Subsequently, 10 μl of buffer B (0.5 M Tris-acetate, pH 7.75, 0.8 mM luciferin, 20 μg/ml luciferase), ADP (to 0.1 mM), malate and pyruvate (both to 1 mM) were added to the cell suspension. Oligomycin (1 μg/ml) was also added to one replicate of each sample prepared as above. Cells were transferred to a luminometer glass tubes and gently mixed with a vortex for 2 sec. Tubes were then placed in a luminometer (LUMAT LB 9507, Berthold Technologies, Germany) and light emission was recorded in the kinetic mode. The integration time for each reading was 1 sec. Interval between readings was 15 sec and a total recording time was 4 min. Finally, total cellular protein content of each sample was determined.

[12] = multiple human cancer cell lines, etoposide 30 μM, ADRIAMYCIN 1.0 μM, 24 hr (FIG. 4C)
[13] = various human breast cancer cell lines (FIG. 23)
[14] = RKO cells, respiratory chain inhibitors, 24 hr or antimycin A 1 μg/ml, rotenone 0.1 μg/ml for various time points (FIGS. 12A-B)
[15] = RKO human colon cancer cells, ADRIAMYCIN 0.5 μM (FIG. 4B)

“G5: lentiviral pLKO.1 CHCM1/CHCHD6-specific shRNA, SEQ ID NO: 4 (CCTGAAGAAGGGACCAATCATCTCGAGATGATTGGTCCCTTCTTCAGGT)” was tested, and the “knockdown of endogenous CHCM1/CHCHD6 at mRNA and protein levels” value (from here on “knockdown of endogenous CHCM1/CHCHD6”) [1] was “effectively knocked down”.

In the case of “G6: lentiviral pLKO.1 CHCM1/CHCHD6-specific shRNA, SEQ ID NO: 5 (GCATGCTGCTATCCAGGATAACTCGAGTTATCCTGGATAGCAGCATGCT)”, the “knockdown of endogenous CHCM1/CHCHD6” value [1] is reported as “effectively knocked down”.

In the case of `COc1cc([C@@H]2c3cc4c(cc3[C@@H](O[C@@H]3O[C@@H]5CO[C@@H](C)O[C@H]5[C@H](O)[C@H]3O)[C@H]3COC(=O)[C@H]23)OCO4)cc(OC)c1O` [etoposide], the CHCM1/CHCHD6 protein levels [2, 12] is reported as “down-regulated”, the CHCM1 protein level [2, 13] is reported as “down-regulate” and the “CHCM1/CHCHD6 mRNA expression” value ([3]; multiple human cancer cell lines, etoposide 30 μM for 24 hr, Northern blot (FIG. 4A)) is reported as “strongly down-regulated”. For the same molecule, the “etoposide-mediated chemosensitivity in cells overexpressing CHCM1/CHCHD6 (cell viability, MTT)” value [4] was “reduced” and the “drug-mediated chemosensitivity in CHCM1/CHCHD6 knockdown cells (cell viability, MTT)” value [5] was “further increased”.

“G8: lentiviral pLKO.1 CHCM1/CHCHD6-specific shRNA, SEQ ID NO: 7 (GCTGAGATGTATAAACTGTCTCTCGAGAGACAGTTTATACATCTCAGCT)” was tested, and the oxygen consumption rate [6] was “affects oxygen consumption rate”, the “cell growth (MTT)” value [7] was “growth inhibition” and the “Abnormal Mitochondria devoid or nearly devoid of cristae structures, Experiment 1” value [8] was 55.6%. The “Abnormal Mitochondria devoid or nearly devoid of cristae structures, Experiment 2” value [8] was 70.5% (74/105), the “Abnormal Mitochondria devoid or nearly devoid of cristae structures, Experiment 1” value [9] was 65.2% and the “knockdown of endogenous CHCM1/CHCHD6” value [1] was “effectively knocked down”. For the same molecule, the “cell growth (MTT)” value [10] was “reduces cell growth” and the “cellular ATP production” value [11] was “affects cellular ATP production”.

With `C=C(C)[C@H]1Cc2c(ccc3c2O[C@@H]2COc4cc(OC)c(OC)cc4[C@@H]2C3=O)O1` [rotenone] the CHCM1/CHCHD6 protein levels [2, 14] was “did not appreciably affect”.

With antimycin A the CHCM1/CHCHD6 protein levels [2, 14] was “did not appreciably affect”.

In the case of `COc1cccc2c1C(=O)c1c(O)c3c(c(O)c1C2=O)C[C@@](O)(C(=O)CO)C[C@@H]3O[C@H]1C[C@H](N)[C@H](O)[C@H](C)O1` [ADRIAMYCIN®, doxorubicin], the CHCM1/CHCHD6 protein levels [2, 12] is reported as “down-regulated”, the CHCM1 protein level [2, 13] is reported as “down-regulate” and the “time by which CHCM1/CHCHD6 mRNA expression was reduced” value [3, 15] is reported as no more than 12 h. For the same molecule, the “time post-treatment until which mRNA down-regulation was maintained” value [3, 15] was 60 h and the “drug-mediated chemosensitivity in CHCM1/CHCHD6 knockdown cells (cell viability, MTT)” value [5] was “further increased”.

In the case of `N.N.[Cl][Pt][Cl]` [Cisplatin], the CHCM1 protein level ([2]; UACC-62 melanoma cells, 24 hrs (FIG. 22)) is reported as “downregulates”.

For “G7: lentiviral pLKO.1 CHCM1/CHCHD6-specific shRNA, SEQ ID NO: 6 (CTTTGGCCTTCAAGATGGCAACTCGAGTTGCCATCTTGAAGGCCAAAGT)”, the “knockdown of endogenous CHCM1/CHCHD6” value [1] was “effectively knocked down”.

With “G4: lentiviral pLKO.1 CHCM1/CHCHD6-specific shRNA, SEQ ID NO: 3 (GAGCGTATTGAGAGGAAGAATCTCGAGATTCTTCCTCTCAATACGCTCT)” the oxygen consumption rate [6] was “affects oxygen consumption rate”, the “cell growth (MTT)” value [7] was “growth inhibition” and the “Abnormal Mitochondria devoid or nearly devoid of cristae structures, Experiment 1” value [8] was 17.8%. The “Abnormal Mitochondria devoid or nearly devoid of cristae structures, Experiment 1” value [9] was 58.3%, the “knockdown of endogenous CHCM1/CHCHD6” value [1] was “effectively knocked down” and the “cell growth (MTT)” value [10] was “reduces cell growth”. The “cellular ATP production” value [11] was “affects cellular ATP production”.
